# From patent US20240277713A1 (Kadmon Corporation, LLC, priority 2022, published 2024)
# Marks after values point to notes of the source that are not given here.
# Test system: New Zealand White rabbits
# Test: Embryo-fetal developmental toxicity study in New Zealand White rabbits (Example 4);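 also: dams given a detailed clinical exam daily GD 6 to 29, about 4 h after dosing, then laparohysterectomy on GD 29 with external, visceral and skeletal fetal examination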
smiles,measurement,setting,value
"CC(C)NC(=O)COc1cccc(-c2nc(Nc3ccc4[nH]ncc4c3)c3ccccc3n2)c1 [belumosudil, 2-{3-[4-(1H-indazol-5-ylamino)-2-quinazolinyl]phenoxy}-N-(propan-2-yl) acetamide]","Fetal External Malformation: Short Tail, No. Fetuses (incidence)",50 mg base/kg/day,0 (0.0)
same,"Fetal External Malformation: Short Tail, No. Litters (incidence)",50 mg base/kg/day,0 (0.0)
same,"Fetal External Malformations, No. Fetuses (incidence)",50 mg base/kg/day,1 (0.5)
same,"Fetal External Malformations, No. Litters (incidence)",50 mg base/kg/day,1 (4.5)
same,"Fetal Skeletal Malformations, No. Fetuses (incidence)",50 mg base/kg/day,8 (4.3)
same,"Fetal Skeletal Malformations, No. Litters (incidence)",50 mg base/kg/day,6 (27.3)
same,"Fetal Visceral Variations, No. Fetuses (incidence)",50 mg base/kg/day,6 (3.2)
same,"Fetal Visceral Variations, No. Litters (incidence)",50 mg base/kg/day,4 (18.2)
same,Maternal Food Consumption GD 0-29,50 mg base/kg/day,141.1
same,Maternal Food Consumption GD 6-10,50 mg base/kg/day,149.4
same,Maternal Food Consumption GD 6-19,50 mg base/kg/day,142.7
same,"Maternal Food Consumption GD 6-19, % Difference From Control",50 mg base/kg/day,−8.8%
same,Maternal Food Consumption GD 19-29,50 mg base/kg/day,136.0
same,Mean Fetal Body Weight Females,50 mg base/kg/day,40.25 g
same,Mean Fetal Body Weight Genders Combined,50 mg base/kg/day,40.97 g
same,Mean Fetal Body Weight Males,50 mg base/kg/day,41.64 g
same,Mean Live Litter Size,50 mg base/kg/day,8.5
same,Mean Number of Early Resorptions,50 mg base/kg/day,0.2
same,Mean Number of Resorptions (Combined),50 mg base/kg/day,0.2
same,Mean Postimplantation Loss,50 mg base/kg/day,2.42 %/Litter
same,Number Litters with Viable Fetuses GD29,50 mg base/kg/day,22
same,Number with All Resorptions GD29,50 mg base/kg/day,0
same,Number Aborted,"50 mg base/kg/day, 23 females",0
same,Number Litters with Viable Fetuses GD29,"50 mg base/kg/day, 23 females",22
same,Number Not Pregnant,"50 mg base/kg/day, 23 females",1
same,Number with All Resorptions GD29,"50 mg base/kg/day, 23 females",0
same,"Activity decreased, times observed/animals affected","50 mg base/kg/day, GD 0-29",0/0
same,"Feces few/absent, times observed/animals affected","50 mg base/kg/day, GD 0-29",0/0
same,"Hair discolored, Brown, Anogenital region, times observed/animals affected","50 mg base/kg/day, GD 0-29",0/0
same,"Hair discolored, Brown, Ear/left, times observed/animals affected","50 mg base/kg/day, GD 0-29",12/1
same,"Hair discolored, Brown, Ear/right, times observed/animals affected","50 mg base/kg/day, GD 0-29",12/1
same,"Hair discolored, Brown, Face, times observed/animals affected","50 mg base/kg/day, GD 0-29",24/3
same,"Hair discolored, Brown, Hind limb/left, times observed/animals affected","50 mg base/kg/day, GD 0-29",3/1
same,"Hair discolored, Red, Anogenital region, times observed/animals affected","50 mg base/kg/day, GD 0-29",0/0
same,"Hair discolored, Red, Face, times observed/animals affected","50 mg base/kg/day, GD 0-29",0/0
same,"Hair discolored, Red, Forelimb/left, times observed/animals affected","50 mg base/kg/day, GD 0-29",1/1
same,"Hair discolored, Red, Thoracic region, times observed/animals affected","50 mg base/kg/day, GD 0-29",1/1
same,"Hair discolored, Yellow, Ear/right, times observed/animals affected","50 mg base/kg/day, GD 0-29",0/0
same,"Hair discolored, Yellow, Face, times observed/animals affected","50 mg base/kg/day, GD 0-29",27/2
same,"Hair sparse, Anogenital region, times observed/animals affected","50 mg base/kg/day, GD 0-29",0/0
same,"Hair sparse, Axillary region/left, times observed/animals affected","50 mg base/kg/day, GD 0-29",0/0
same,"Hair sparse, Axillary region/right, times observed/animals affected","50 mg base/kg/day, GD 0-29",0/0
same,"Hair sparse, Cervical region, times observed/animals affected","50 mg base/kg/day, GD 0-29",0/0
same,"Hair sparse, Ear/left, times observed/animals affected","50 mg base/kg/day, GD 0-29",0/0
same,"Hair sparse, Ear/right, times observed/animals affected","50 mg base/kg/day, GD 0-29",0/0
same,"Hair sparse, Forefoot/left, times observed/animals affected","50 mg base/kg/day, GD 0-29",5/1
same,"Hair sparse, Forefoot/right, times observed/animals affected","50 mg base/kg/day, GD 0-29",4/1
same,"Hair sparse, Forelimb/left, times observed/animals affected","50 mg base/kg/day, GD 0-29",5/1
same,"Hair sparse, Hind limb/left, times observed/animals affected","50 mg base/kg/day, GD 0-29",5/1
same,"Hair sparse, Inguinal region/right, times observed/animals affected","50 mg base/kg/day, GD 0-29",0/0
same,"Hair sparse, Shoulder/left, times observed/animals affected","50 mg base/kg/day, GD 0-29",0/0
same,"Hair sparse, Thoracic region, times observed/animals affected","50 mg base/kg/day, GD 0-29",0/0
same,"Hair sparse, Ventral surface, times observed/animals affected","50 mg base/kg/day, GD 0-29",0/0
same,"Material in pan/bedding, Red, times observed/animals affected","50 mg base/kg/day, GD 0-29",0/0
same,"Nail missing, Forefoot/left, times observed/animals affected","50 mg base/kg/day, GD 0-29",1/1
same,"Scabbed area, Ear/left, times observed/animals affected","50 mg base/kg/day, GD 0-29",0/0
same,"Scabbed area, Nose/muzzle, times observed/animals affected","50 mg base/kg/day, GD 0-29",0/0
same,"Skin discolored, Pale, Entire body, times observed/animals affected","50 mg base/kg/day, GD 0-29",0/0
same,"Swelling, Nose/muzzle, times observed/animals affected","50 mg base/kg/day, GD 0-29",0/0
same,"Swelling, Vulva, times observed/animals affected","50 mg base/kg/day, GD 0-29",3/1
same,"Thin, times observed/animals affected","50 mg base/kg/day, GD 0-29",0/0
same,"Fetal External Malformation: Short Tail, No. Fetuses (incidence)",125 mg base/kg/day,0 (0.0)
same,"Fetal External Malformation: Short Tail, No. Litters (incidence)",125 mg base/kg/day,0 (0.0)
same,"Fetal External Malformations, No. Fetuses (incidence)",125 mg base/kg/day,0 (0.0)
same,"Fetal External Malformations, No. Litters (incidence)",125 mg base/kg/day,0 (0.0)
same,"Fetal Skeletal Malformations, No. Fetuses (incidence)",125 mg base/kg/day,10 (6.6)
same,"Fetal Skeletal Malformations, No. Litters (incidence)",125 mg base/kg/day,6 (31.6)
same,"Fetal Visceral Variations, No. Fetuses (incidence)",125 mg base/kg/day,11 (7.2)
same,"Fetal Visceral Variations, No. Litters (incidence)",125 mg base/kg/day,7 (36.8)
same,"Maternal Body Weight Change GD 0-29, % Difference From Control",125 mg base/kg/day,−8.6%
same,"Maternal Body Weight GD 19, % Difference From Control",125 mg base/kg/day,−5.1%
same,Maternal Food Consumption GD 0-29,125 mg base/kg/day,128.8
same,"Maternal Food Consumption GD 0-29, % Difference From Control",125 mg base/kg/day,−11.6%
same,Maternal Food Consumption GD 6-10,125 mg base/kg/day,117.9^b
same,Maternal Food Consumption GD 6-19,125 mg base/kg/day,103.1
same,"Maternal Food Consumption GD 6-19, % Difference From Control",125 mg base/kg/day,−34.1%
same,Maternal Food Consumption GD 19-29,125 mg base/kg/day,149.9^a
same,Mean Fetal Body Weight Females,125 mg base/kg/day,41.14 g
same,Mean Fetal Body Weight Genders Combined,125 mg base/kg/day,41.09 g
same,Mean Fetal Body Weight Males,125 mg base/kg/day,41.61 g
same,Mean Live Litter Size,125 mg base/kg/day,8.0
same,Mean Number of Early Resorptions,125 mg base/kg/day,0.5
same,Mean Number of Resorptions (Combined),125 mg base/kg/day,0.7
same,Mean Postimplantation Loss,125 mg base/kg/day,7.42 %/Litter
same,Number Litters with Viable Fetuses GD29,125 mg base/kg/day,19
same,Number with All Resorptions GD29,125 mg base/kg/day,0
same,"ureter malpositioned, litter incidence",125 mg base/kg/day,21.1%
same,Number Aborted,"125 mg base/kg/day, 23 females",1
same,Number Litters with Viable Fetuses GD29,"125 mg base/kg/day, 23 females",19
same,Number Not Pregnant,"125 mg base/kg/day, 23 females",3
same,Number with All Resorptions GD29,"125 mg base/kg/day, 23 females",0
same,"Activity decreased, times observed/animals affected","125 mg base/kg/day, GD 0-29",0/0
same,"Feces few/absent, times observed/animals affected","125 mg base/kg/day, GD 0-29",0/0
same,"Hair discolored, Brown, Anogenital region, times observed/animals affected","125 mg base/kg/day, GD 0-29",7/1
same,"Hair discolored, Brown, Ear/left, times observed/animals affected","125 mg base/kg/day, GD 0-29",0/0
same,"Hair discolored, Brown, Ear/right, times observed/animals affected","125 mg base/kg/day, GD 0-29",0/0
same,"Hair discolored, Brown, Face, times observed/animals affected","125 mg base/kg/day, GD 0-29",0/0
same,"Hair discolored, Brown, Hind limb/left, times observed/animals affected","125 mg base/kg/day, GD 0-29",0/0
same,"Hair discolored, Red, Anogenital region, times observed/animals affected","125 mg base/kg/day, GD 0-29",1/1
same,"Hair discolored, Red, Face, times observed/animals affected","125 mg base/kg/day, GD 0-29",2/1
same,"Hair discolored, Red, Forelimb/left, times observed/animals affected","125 mg base/kg/day, GD 0-29",0/0
same,"Hair discolored, Red, Thoracic region, times observed/animals affected","125 mg base/kg/day, GD 0-29",0/0
same,"Hair discolored, Yellow, Ear/right, times observed/animals affected","125 mg base/kg/day, GD 0-29",0/0
same,"Hair discolored, Yellow, Face, times observed/animals affected","125 mg base/kg/day, GD 0-29",10/1
same,"Hair sparse, Anogenital region, times observed/animals affected","125 mg base/kg/day, GD 0-29",15/2
same,"Hair sparse, Axillary region/left, times observed/animals affected","125 mg base/kg/day, GD 0-29",2/1
same,"Hair sparse, Axillary region/right, times observed/animals affected","125 mg base/kg/day, GD 0-29",2/1
same,"Hair sparse, Cervical region, times observed/animals affected","125 mg base/kg/day, GD 0-29",1/1
same,"Hair sparse, Ear/left, times observed/animals affected","125 mg base/kg/day, GD 0-29",0/0
same,"Hair sparse, Ear/right, times observed/animals affected","125 mg base/kg/day, GD 0-29",0/0
same,"Hair sparse, Forefoot/left, times observed/animals affected","125 mg base/kg/day, GD 0-29",0/0
